The source of these data is PMC4538381, “Activation of Relaxin Family Receptor 1 from Different Mammalian Species by Relaxin Peptide and Small-Molecule Agonist ML290” (Frontiers in Endocrinology, 2015).

One test has as its system human RXFP1. Briefly: CRE-Luc BacMam luciferase assay, human RXFP1. It is filed as cell-based. The arrangement: key to Activation of RXFP1 receptors: *: Weak; **: intermediate; ***: strong activation of the receptor. On the procedure:
(§1) GloResponse™ CRE-luc2P HEK293T cells stably transfected with cAMP response element-driven luciferase (CRE-Luc) reporter (Promega, Madison, WI, USA) were transduced with human, macaque, pig, and mouse RXFP1 expression BacMam vectors according to the manufacturer’s protocol (Invitrogen) and incubated at room temperature for 2 h in the dark with occasional mixing. The volume of the cell culture was adjusted to 1000 cells/μl with DMEM + 10% FBS. Cells (3 μl, 3000 cells) were plated on 1536-well white solid-bottom TC plates and incubated overnight at 37C°, 5% CO2. Four hundred […] Ro 20-1724 (Sigma-Aldrich, St. Louis, MO, USA) in PBS (1 μl) was added in each well. The cells were treated with serial dilutions of either Forskolin (Sigma-Aldrich), ML290 ([5]) or porcine RLN at final concentrations’ range (57 μM–3.5 pM) for Forskolin and ML290, and (8.7 μM–1.8 pM, or 57 ng/μl–0.012 pg/μl] for RLN. After 2 h stimulation at 37°C, 4 μl of detection reagent from Amplite™ Luciferase reporter gene assay kit (AAT Bioquest, Sunnyvale, CA, USA) was added as a mix of 90% Component A, 5% Component C, and 5% Component D, and incubated at room temperature for 5 min. Luminescent signal was measured on Viewlux uHTS Microplate Imager (PerkinElmer, Santa Clara, CA, USA). The data were processed using GraphPad Software (San Diego, CA, USA).

The subject of another test is macaque RXFP1. Nature of the test: CRE-Luc BacMam luciferase assay, macaque RXFP1. It is filed as cell-based, rhesus macaque (Macaca mullata). The arrangement: key to Activation of RXFP1 receptors: *: Weak; **: intermediate; ***: strong activation of the receptor. On the procedure:
as §1

For the next test, the system named is pig RXFP1. Briefly: CRE-Luc BacMam luciferase assay, pig RXFP1. It is filed as cell-based, pig (Sus scrofa). Details: key to Activation of RXFP1 receptors: *: Weak; **: intermediate; ***: strong activation of the receptor. On the procedure:
as §1

A further test deals with mouse RXFP1. Nature of the test: CRE-Luc BacMam luciferase assay, mouse RXFP1. It is filed as cell-based. To be noted: CRE-luc HEK293T, 2 h, highest concentrations of ML290 (range 57 μM–3.5 pM). On the procedure: as §1
The subject of a further test is GH-RXFP1. Nature of the test: Direct HTRF cAMP assay, guinea pig/human chimera GH-RXFP1. It is filed as cell-based. The arrangement: key to Activation of RXFP1 receptors: *: Weak; **: intermediate; ***: strong activation of the receptor. On the procedure:
(§2) The human, mouse, macaque, and pig RXFP1 cDNA constructs in baculovirus BacMam mammalian expression vector (Invitrogen, Carlsbad, CA, USA) were synthesized at the Eukaryotic Expression Group-Protein Expression laboratory (NCI, Frederick, MD, USA). The PCR primers for RT-PCR were designed to cover the full-length sequence of the open reading frame (ORF). PCR amplifications were performed with PfuUltra High-Fidelity DNA polymerase (Agilent Technologies, Santa Clara, CA, USA). Guinea pig RXFP1 (G-RXFP1) was amplified from guinea pig ovarian cDNA (Zyagen, San Diego, CA, USA). Rabbit RXFP1 (R1-RXFP1 and R2-RXFP1) cDNAs were amplified from rabbit uterus cDNA (Zyagen). All cloning was performed using the In-Fusion® HD Cloning Kit (Clontech Laboratories, Mountain View, CA, USA). Rabbit and guinea pig RXFP1s were cloned into pCR3.1 mammalian expression vector (Invitrogen). […]
(§3) Direct measurement of cAMP production was performed using the HTRF cAMP HiRange kit (CisBio, Bedford, MA, USA). […] The plates were incubated for 60 min at room temperature, and the signal was read on a FLUOstar Omega (BMG Labtech, Cary, NC, USA) plate reader. cAMP levels were calculated according to the manufacturer’s instructions against a standard curve. […]
A general note: TR-FRET usually uses a lanthanide donor and a delayed reading to cut background.

In a further test the test system is R1-RXFP1 and R2-RXFP1. Nature of the test: Direct HTRF cAMP assay, rabbit R1-RXFP1 and R2-RXFP1. It is filed as cell-based, European rabbit (Oryctolagus cuniculus). The arrangement: key to Activation of RXFP1 receptors: *: Weak; **: intermediate; ***: strong activation of the receptor. On the procedure: The human, mouse, macaque, and pig RXFP1 cDNA constructs in baculovirus BacMam mammalian expression vector (Invitrogen, Carlsbad, CA, USA) were synthesized at the Eukaryotic Expression Group-Protein Expression laboratory (NCI, Frederick, MD, USA). The PCR primers for RT-PCR were designed to cover the full-length sequence of the open reading frame (ORF). PCR amplifications were performed with PfuUltra High-Fidelity DNA polymerase (Agilent Technologies, Santa Clara, CA, USA). Guinea pig RXFP1 (G-RXFP1) was amplified from guinea pig ovarian cDNA (Zyagen, San Diego, CA, USA). Rabbit RXFP1 (R1-RXFP1 and R2-RXFP1) cDNAs were amplified from rabbit uterus cDNA (Zyagen). All cloning was performed using the In-Fusion® HD Cloning Kit (Clontech Laboratories, Mountain View, CA, USA). Rabbit and guinea pig RXFP1s were cloned into pCR3.1 mammalian expression vector (Invitrogen). In order to study RXFP1 surface expression, rabbit cDNAs were cloned into pcDNA3.1™/Zeo+ mammalian expression vector (Invitrogen), which contained an N-terminal FLAG-tag and a bovine prolactin signal sequence (3). […] To make chimeric clones, the human, guinea pig, and rabbit plasmid were used as templates to produce PCR amplicons, which were then used for overlapping PCR and subsequent cloning with the In-Fusion kit. The chimeric guinea pig/human GH-RXFP1 construct contains guinea pig RXFP1 cDNA (G-RXFP1, 1–1499 bp) encoding the ectodomain, TM1, TM2, and part of TM3 (amino acids 1–499 of G-RXFP1), and human RXFP1 (hRXFP1, 1509–2274 bp) encoding TM3 to the C-terminal tail of the receptor (amino acids 503–757 of hRXFP1) (Figure 1A). The recombinant chimeric human–rabbit HR-RXFP1 was made with the 5′-part of the hRXFP1 sequence (1–972 bp, LDLa-LRR9, 1–324 aa), with the remainder being the rabbit RXFP1 sequence (973–2277 bp, LRR9-C-terminal tail, 325–759 aa) (Figure 1A). The recombinant chimeric rabbit–human R1H-RXFP1 or R2H-RXFP1 contains the N-terminal rabbit RXFP1 sequence (1–972 bp for R1-RXFP1 or 975 bp for R2-RXFP1), with the remaining sequence being hRXFP1 (973–2274) (Figure 1A). R1- and R2-RXFP1 denote two variants of rabbit RXFP1 cDNA. All numbers correspond to the full-length cDNAs with the first nucleotide of the ORF.
HEK293T cell transient transfections were performed using Lipofectamine 2000 transfection reagent (Life Technologies, Grand Island, NY, USA) according to the manufacturer’s instructions. Cells transiently expressing the RXFP1 receptors were used within 48 h of transfection. Each construct was tested at least three times. For cell-conditioned media stimulation, HEK293T cells were transfected with the rabbit RLN construct (SQ10) or an empty pCR3.1 vector, and cells were cultured for 24 h. The media was used to stimulate HEK293T cells transfected with the RXFP1 receptors.
Direct measurement of cAMP production was performed using the HTRF cAMP HiRange kit (CisBio, Bedford, MA, USA). HEK293T cells transiently transfected with different RXFP1 receptors were stimulated with various concentrations of RLN peptides or ML290 for 60 min at 37°C, 5% CO2, after which, two HTRF detection reagents (diluted according to assay kit directions in HTRF lysis buffer) were added. The plates were incubated for 60 min at room temperature, and the signal was read on a FLUOstar Omega (BMG Labtech, Cary, NC, USA) plate reader. cAMP levels were calculated according to the manufacturer’s instructions against a standard curve. Statistical processing of the data was performed using GraphPad Prism software.

The subject of another test is HR-RXFP1. Briefly: Direct HTRF cAMP assay, human/rabbit chimera HR-RXFP1. It is filed as cell-based. The settings on record: transiently transfected HEK293T, % of hRXFP1 activation by 10 nM RLN. On the procedure: as §2, §3
The subject of the next test is R1H-RXFP1 and R2H-RXFP1. Briefly: Direct HTRF cAMP assay, rabbit/human chimeras R1H- and R2H-RXFP1. It is filed as cell-based. The arrangement: key to Activation of RXFP1 receptors: *: Weak; **: intermediate; ***: strong activation of the receptor. On the procedure: as §2, §3
The subject of the next test is R1-RXFP1. Nature of the test: Indirect CRE-β-gal reporter cAMP assay, rabbit R1-RXFP1. It is filed as cell-based, European rabbit (Oryctolagus cuniculus). The settings on record: 6 h at 37°C, % of 5 μM Forskolin response. On the procedure: For the indirect cAMP assay, changes in cAMP signaling were measured by co-transfection of receptors with a CRE-β-galactosidase (CRE-β-gal) reporter construct ([11]). Cells were stimulated for 6 h at 37°C with RLN peptides or ML290 at various concentrations. A non-linear regression sigmoidal dose–response curve was then produced using GraphPad Prism. All experiments were conducted at least three times with three to four replicates each time.
A general note: cAMP levels reflect the balance of adenylyl cyclase and phosphodiesterase activity.

For another test, the system named is mouse RXFP1 receptor. To be noted: direct cAMP HTRF assay, ref [5]; cited from earlier work.
Test [1] deals with modified mouse receptor with humanized ECL3. The settings on record: ECL3 amino acids mutated, ref [5]; cited from earlier work. An excerpt: The rabbit and guinea pig receptors provide new structural templates for analysis of RLN and ML290 activation of RXFP1. […] Indeed, it was shown that primary binding of RLN to RXFP1 involve sites within LRR4, 5, 6, and 8 ([2]). In contrast, the 7TM region of RXFP1, which is the site of allosteric small-molecule agonist binding, is functional in rabbits. The opposite was true for guinea pig RXFP1: despite having the same ECL3 sequence as pig ...

“Also recorded” adds a separate entry of the source.

With `CC(C)Oc1ccccc1C(=O)Nc1ccccc1C(=O)Nc1cccc(S(=O)(=O)C(F)(F)F)c1` [ML290], the “Activation of RXFP1 receptors” value is “***” in the test with human RXFP1 (Human receptor, summary grade, HEK293T cells); “***” with macaque RXFP1 (Macaque receptor, summary grade, HEK293T cells); “***” with pig RXFP1 (Pig receptor, summary grade, HEK293T cells); “*” in the test on GH-RXFP1 (Guinea pig/human chimera, summary grade, HEK293T cells); “**” in the test on R1-RXFP1 and R2-RXFP1 (Rabbit 1 and 2, summary grade, HEK293T cells); “**” in the test on R1H-RXFP1 and R2H-RXFP1 (Rabbit 1(2)/human chimera, summary grade, HEK293T cells). For the same molecule, the “cAMP response (luciferase activity)” value is “responded strongly to ML290 stimulation” in the test with human RXFP1 (human RXFP1, CRE-luc HEK293T, 2 h, ML290 57 μM–3.5 pM); “responded to relaxin and ML290 treatment; also recorded: responded strongly to ML290 stimulation; also recorded: fully activated by RLN and ML290” in the test on macaque RXFP1 (macaque RXFP1, CRE-luc HEK293T, 2 h, ML290 57 μM–3.5 pM, RLN 8.7 μM–1.8 pM); “responded to relaxin and ML290 treatment; also recorded: responded strongly to ML290 stimulation; also recorded: fully activated by RLN and ML290” in the test on pig RXFP1 (pig RXFP1, CRE-luc HEK293T, 2 h, ML290 57 μM–3.5 pM, RLN 8.7 μM–1.8 pM); “significant increase in luciferase activity; also recorded: activation of the CRE-reporter was observed with high-dose ML290 treatment on the mouse receptor” in the test on mouse RXFP1. Also, the cAMP response entry is “only partially restored ML290 activation; also recorded: ML290 responsiveness, albeit to a much lower level than in hRXFP1 (p < 0.001); also recorded: efficacy of ML290 stimulation was improved, however, it was still lower than in hRXFP1-transfected cells” with GH-RXFP1 (GH-RXFP1, transiently transfected HEK293T, HTRF, 60 min at 37°C, % of 10 μM Forskolin response); “generated an increase in cAMP” with R1-RXFP1 and R2-RXFP1 (R1-RXFP1 and R2-RXFP1, transiently transfected HEK293T, data not shown); “all three receptors respond to ML290” in the test with HR-RXFP1; “the level of activation of R1H- and R2H-RXFP1 was higher than that of R1-, R2-, or HR-RXFP1-transfected cells” in the test with R1H-RXFP1 and R2H-RXFP1 (R1H- and R2H-RXFP1, HTRF, transiently transfected HEK293T, % of hRXFP1 activation by 10 nM RLN). The “cAMP response, FLAG-tagged receptors” value in the test on R1-RXFP1 and R2-RXFP1 (FLAG-tagged R1- and R2-RXFP1, HTRF, 60 min, % of hRXFP1 activation by 10 nM RLN) was “produced a cAMP increase in cells transfected with both rabbit receptors, albeit with lesser efficacy than hRXFP1”. For the same molecule, the “statistical significance of response versus hRXFP1” value in the test with R1-RXFP1 and R2-RXFP1 (R1- and R2-RXFP1, 10 nM relaxin peptides or 5 μM ML290, HTRF) is “statistically significant compared to hRXFP1, ***p < 0.001”. In the test on R1-RXFP1 and R2-RXFP1 (R1- and R2-RXFP1, 5 μM ML290, HTRF, transiently transfected HEK293T), the “cAMP response to 5 μM ML290” value was “responded to 5 μM of ML290”. The “activation of rabbit RXFP1 (summary)” value with R1-RXFP1 and R2-RXFP1 (rabbit RXFP1 variants, cAMP production, abstract/discussion) is recorded as “activated by ML290”. Moreover, in the test with R1-RXFP1, the “cAMP response (ML290), CRE-β-gal” value was “comparable to hRXFP1”. Besides, the “activation of mouse RXFP1 (cAMP)” value in the test on mouse RXFP1 receptor is “does not activate the mouse receptor; also recorded: did not see an increase of cAMP; also recorded: no activation being seen in the direct HTRF cAMP assay; also recorded: did not activate the mouse RXFP1 receptor”. Besides, the “activation of mouse receptor with humanized ECL3” value in test [1] was “activated by ML290”.
